Results on one molecule are retold here after patent publication US7553505B2, “Health care product containing isoflavone aglycones and method of producing the same” (The Hong Kong University of Science and Technology, priority 2006, dated 2009).

The conditions of data set [1]: Mitchell et al., 1998; Setchell et al., 2003; cited from earlier work.
Data set [2] is described as follows: Solubility in alcohol against temperature (FIG. 2). In kind it is physicochemical. Conditions: within the specific temperature range of FIG. 2. The text has this:
FIG. 2 is a diagram showing the solubilities of genistein and daidzein in methanol against temperature.
The first step of the method as described above is extraction. This process of grinding starting materials disrupts their tissue structure to enable the isoflavone fractions more easily extracted by the organic solvent. Then, an organic solvent, preferably ethanol, is used to recover isoflavones based on the high solubilities and steadiness of isoflavones in the selected solvents. […] Ethanol (edible alcohol) is preferred in this invention to ensure the isoflavone product will not endanger human health even with the remains of solvent. The extraction is carried out at a temperature ranging from 40 to 90° C. for 2-24 hrs, with the material ratio (volume:weight) of solvent to flour between 1:1 and 10:1 (mL:g).

Each structure is given as a SMILES string.

With `O=c1c(-c2ccc(O)cc2)coc2cc(O)cc(O)c12` [genistein, Genistein], the “biological activities among the twelve soy isoflavones” value in data set [1] is on record as “highest biological activities”. In addition, in data set [2], the “solubility in alcohol including methanol and ethanol versus temperature” value is “increase evidently with increasing temperature”.
